Tests used:
target gene SOD1 [1] = assay: Test Example 6: inhibitory activity of NM073, NM074 conjugated siRNA sequences on SOD1 by intrathecal administration to rats; assay type: in vivo, SD rats; details: D28; for Cerebellum % Mean value of inhibition rate / Cortex % Mean value of inhibition rate / Hippocampus % Mean value of inhibition rate / Cervical segment % Mean value of inhibition rate / Lumbar segment % Mean value of inhibition rate / Thoracic segment % Mean value of inhibition rate: intrathecal, 900 μg per rat; for Cortex % Mean value of inhibition rate: cerebral cortex; for level of inhibition on the target gene compared with the Uhd control conjugate (RZ899093): intrathecal 900 μg per rat; for Cervical segment % Mean value of inhibition rate: spinal cord cervical segment; for Lumbar segment % Mean value of inhibition rate: spinal cord lumbar segment; for Thoracic segment % Mean value of inhibition rate: spinal cord thoracic segment
Description: 6-8 Week-old SD rats were randomly grouped by body weight. Rats in each group were administered with siRNA by intrathecal administration, with an administration dose of 900 μg per rat. Injection was administered from rat spinal cord L5-L6, with an administration volume of 40 μL. Needle was retained for 2 min after completion of injection, and then slowly withdrawn. PBS control group was administered with the same volume of siRNA conjugate-free PBS solution. The day of administration was recorded as 0 day (D0), and the rats were sacrificed at observation point after administration. Different segments of spinal cord and different regions of brain were respectively taken and stored in the RNAlater.
(§1) RNA extraction: the above tissue samples were taken out from the RNAlater, and smashed for 60 s in Tissuelyser type II full-automatic tissue homogenizer, and total RNAs of various tissue samples were extracted using the full-automatic nucleic acid extraction instrument and the nucleic acid extraction kit from Zhejiang Hanwei Science and Technology Co. Ltd. according to methods described in instructions.
(§2) Reverse transcription reaction: 1 μg of the extracted total RNAs of the tissue samples were taken, and configured into 20 μL of reverse transcription system according to a method described in kit instructions by using a reverse transcription kit (Reverse Transcription System, A3500) from Promega Corporation and selecting Oligo (dT)15 reverse transcription primers, and the reverse transcription reaction was completed. After the reaction was ended, 80 μL of RNase-Free water was added into the reverse transcription system to provide cDNA solution for Real-time PCR detection.
(§3) Real-time PCR detection: 20 μL of Real-time PCR reaction system per PCR detection well was configured according to a method described in kit instructions using SYBR™ Select Master Mix (Catalog number: 4472908) reagent from ABI company. Each detection system contained 5 μL of cDNA template obtained from the above reverse transcription reaction, 10 μL of SYBR™ Select Master Mix, 0.5 μL of 10 μM upstream primers, 0.5 μL of 10 μM downstream primers, and 4 μL of RNase-Free H2O. The configured reaction system was subjected to Real-time PCR amplification on ABI StepOnePlus PCR instrument by a three-step method, wherein an amplification procedure was pre-denaturation at 95° C. for 10 min, then denaturation at 95° C. for 30 s, annealing at 60° C. for 30 s, and extension at 72° C. for 30 s; and processes of denaturation, annealing, and extension were repeated for 40 cycles. Gene expression differences were calculated by the ΔΔCt method after completion of the procedure.
(§4) In the real-time fluorescence quantitative PCR method, relative quantitative calculation of remaining expression level and inhibition rate of gene mRNA of interest in various test groups was performed by the ΔΔCt method, and the calculation method is as follows:
The present test example evaluated, by an evaluation method for inhibitory activity on a target gene by intrathecal administration to rats, the inhibitory activity of siRNA sequence RZ899090 with the NM073 conjugation at Position 4, siRNA sequence RZ899091 with the NM074 conjugation at Position 4 and siRNA control sequence RZ899093 with the Uhd conjugation on the target gene SOD1 of interest in spinal cord and brain of rats. The above conjugation vectors were different in that NM073 was C18 aliphatic chain and NM074 was C20 aliphatic chain.
6-8 Week-old SD rats were randomly grouped by body weight, 5 per group, 4 groups in total. Rats in each group were dosed with the above siRNA conjugates by intrathecal administration, with an administration dose of 900 μg per rat, and an administration volume of 40 μL. PBS control group was administered with the same volume of siRNA conjugate-free PBS solution. The day of administration was recorded as D0, and the rats were sacrificed on D28 after administration. […]

target gene SOD1 [2] = assay: Test Example 8: inhibitory activity on target gene SOD1 in adipose tissues in different parts of mice; assay type: in vivo, C57BL/6j mice; details: D14; for Subcutaneous fat % Mean value of inhibition rate: abdominal subcutaneous fat; for Subcutaneous fat % Mean value of inhibition rate / Brown fat on back % Mean value of inhibition rate / Paragonadal fat % Mean value of inhibition rate: tail vein injection 5 mg/kg; for inhibitory activity compared with the NM200 conjugated reference sequence RZ899076: paragonadal fat and brown fat on back; for inhibitory activity compared with the NM200 conjugated reference sequence RZ899076 / inhibitory action on the target gene compared with RZ899076: tail vein 5 mg/kg; for inhibitory action on the target gene compared with RZ899076: subcutaneous fat
Description: as §1, §2, §3, §4
The present test example evaluated, by an evaluation method for inhibitory activity on a target gene in mice, the inhibitory activity of siRNA sequence RZ899090 with the sense strand with the NM073 conjugation at Position 4, siRNA sequence RZ899091 with the sense strand with the NM074 conjugation at Position 4, siRNA sequence RZ899078 with the sense strand with the NM202 conjugation at Position 6 and siRNA reference sequence RZ899093 with the sense strand with the Uhd conjugation at Position 4, siRNA reference sequence RZ899076 with the sense strand with the NM200 conjugation at Position 4 on the target gene SOD1 in adipose tissues of interest in mice.
(§5) 6-8 Week-old C57BL/6j mice were randomly grouped by body weight, 5 per group, 6 groups in total. Mice in each group were dosed with the above siRNA conjugates by tail vein injection, with an administration dose of 5 mg/kg per mouse, and an administration volume of 150 μL. PBS control group was administered with the same volume of siRNA conjugate-free PBS solution. The day of administration was recorded as D0, and 5 mice in each group were sacrificed on D14 after administration. Paragonadal fat, abdominal subcutaneous fat, and brown fat on back were respectively taken. RNA extraction, reverse transcription, and real-time fluorescence quantitative detection were performed on various tissues according to the above method, and gene expression differences were calculated by the above ΔΔCt method.

target gene SOD1 [3] = assay: Test Example 9: inhibitory activity of lipid conjugated siRNA sequences on SOD1 in mouse muscle tissues; assay type: in vivo, C57BL/6j mice; details: D14; for Diaphragm % Mean value of inhibition rate / Heart % Mean value of inhibition rate / Left quadriceps muscle % Mean value of inhibition rate: tail vein injection 5 mg/kg; for inhibitory activity compared with the NM200 conjugated reference sequence RZ899076: heart tissues; for inhibitory activity compared with the NM200 conjugated reference sequence RZ899076 / inhibitory action on the left quadriceps muscle and diaphragm: tail vein 5 mg/kg; for Left quadriceps muscle % Mean value of inhibition rate: left hind leg quadriceps muscle
Description: as §1, §2, §3, §4
The present test example evaluated, by an evaluation method for inhibitory activity on a target gene in mice, the inhibitory activity of siRNA sequence RZ899090 with the sense strand with the NM073 conjugation at Position 4, siRNA sequence RZ899091 with the sense strand with the NM074 conjugation at Position 4, siRNA sequence RZ899078 with the sense strand with the NM202 conjugation at Position 6 and siRNA reference sequence RZ899093 with the sense strand with the Uhd conjugation at Position 4, siRNA reference sequence RZ899076 with the sense strand with the NM200 conjugation at Position 4 on the target gene SOD1 of interest in muscle tissues in different parts of mice.
as §5, with “Tissues such as left hind leg quadriceps muscle, diaphragm,” for “Paragonadal fat, abdominal subcutaneous fat,”, “heart tissues” for “brown fat on back”, “taken and stored in the RNAlater.” for “taken.”

## RZ899090: siRNA sequence with the sense strand with the NM073 (C18) conjugation at Position 4; SEQ ID NO: 15 / 23 (sense UUUNAAUCCUCACUCUAAA; antisense UUUAGAGUGAGGAUUAAAAUG; NM073 (C18) conjugate at sense position 4; modified_base 1..2 OTHER; 2'-methoxy and 5'-thiophosphate modified nucleotides; modified_base 3 OTHER; 2'-methoxy modified nucleotide; modified_base 4 OTHER; n is the nucleotide analog NM073 as described in the disclosure.; modified_base 5..6 OTHER; 2'-methoxy modified nucleotides; modified_base 7..10 OTHER; 2'-fluoro modified nucleotides; modified_base 11..19 OTHER; modified_base 1 OTHER; 2'-methoxy and 5'-thiovinylphosphonate modified nucleotide; modified_base 2 OTHER; 2'-fluoro and 5'-thiophosphate modified nucleotide; modified_base 3..5 OTHER; …)
Target gene SOD1 [1]
  Cerebellum % Mean value of inhibition rate: 56.97%
  Cortex % Mean value of inhibition rate: −15.00%
  Hippocampus % Mean value of inhibition rate: 35.35%
  level of inhibition on the target gene compared with the Uhd control conjugate (RZ899093): comparable level of inhibition in the spinal cord segment and cerebellum
  Cervical segment % Mean value of inhibition rate: 69.98%
  Lumbar segment % Mean value of inhibition rate: 93.93%
  Thoracic segment % Mean value of inhibition rate: 94.17%
Target gene SOD1 [2]
  Subcutaneous fat % Mean value of inhibition rate: 71.07%
  Brown fat on back % Mean value of inhibition rate: 81.60%
  inhibitory activity compared with the NM200 conjugated reference sequence RZ899076: equivalent or superior inhibitory activity
  Paragonadal fat % Mean value of inhibition rate: 67.09%
  inhibitory action on the target gene compared with RZ899076: substantially comparable
Target gene SOD1 [3]
  Diaphragm % Mean value of inhibition rate: 43.77%
  inhibitory activity compared with the NM200 conjugated reference sequence RZ899076: superior inhibitory activity
  Heart % Mean value of inhibition rate: 67.88%
  Left quadriceps muscle % Mean value of inhibition rate: 33.16%
  inhibitory action on the left quadriceps muscle and diaphragm: certain inhibitory action

## RZ899091: siRNA sequence with the sense strand with the NM074 (C20) conjugation at Position 4; SEQ ID NO: 16 / 23 (sense UUUNAAUCCUCACUCUAAA; antisense UUUAGAGUGAGGAUUAAAAUG; NM074 (C20) conjugate at sense position 4; modified_base 1..2 OTHER; 2'-methoxy and 5'-thiophosphate modified nucleotides; modified_base 3 OTHER; 2'-methoxy modified nucleotide; modified_base 4 OTHER; n is the synthetic nucleotide analog NM074 as described in the disclosure.; modified_base 5..6 OTHER; 2'-methoxy modified nucleotides; modified_base 7..10 OTHER; 2'-fluoro modified nucleotides; modified_base 11..19 OTHER; 2'-methoxy modified ; modified_base 1 OTHER; 2'-methoxy and 5'-thiovinylphosphonate modified nucleotide; modified_base 2 OTHER; 2'-fluoro and 5'-thiophosphate modified …)
Target gene SOD1 [1]
  Cerebellum % Mean value of inhibition rate: 73.86%
  Cortex % Mean value of inhibition rate: 28.78%
  Hippocampus % Mean value of inhibition rate: 70.69%
  level of inhibition on the target gene compared with the Uhd control conjugate (RZ899093): superior level of inhibition on the target gene in the spinal cord segment, cerebellum, and hippocampus
  Cervical segment % Mean value of inhibition rate: 92.15%
  Lumbar segment % Mean value of inhibition rate: 95.17%
  Thoracic segment % Mean value of inhibition rate: 98.15%
Target gene SOD1 [2]
  Subcutaneous fat % Mean value of inhibition rate: 67.17%
  Brown fat on back % Mean value of inhibition rate: 80.97%
  inhibitory activity compared with the NM200 conjugated reference sequence RZ899076: equivalent or superior inhibitory activity
  Paragonadal fat % Mean value of inhibition rate: 75.20%
  inhibitory action on the target gene compared with RZ899076: substantially comparable
Target gene SOD1 [3]
  Diaphragm % Mean value of inhibition rate: 39.22%
  inhibitory activity compared with the NM200 conjugated reference sequence RZ899076: superior inhibitory activity
  Heart % Mean value of inhibition rate: 76.73%
  Left quadriceps muscle % Mean value of inhibition rate: 33.02%
  inhibitory action on the left quadriceps muscle and diaphragm: certain inhibitory action

— patent US20260132165A1, “MODIFIED NUCLEOSIDE ANALOGUE AND USE THEREOF, AND NUCLEOSIDE ANALOGUE-CONTAINING DOUBLE-STRANDED OLIGONUCLEOTIDE AND USE THEREOF” (RIGERNA THERAPEUTICS (BEIJING) CO., LTD., priority 2023, published 2026)
